One data set concerns Trypanosoma brucei. Nature of the data set: Trypanocidal activity against Trypanosoma brucei Lister 427, antigenic type MiTat 1.2, clone 221a after 72 hrs by alamarBlue assay. It is filed as functional, organism-based. As to conditions: Lister 427, 72 h.
Another data set concerns MRC5. The data set can be described thus: Cytotoxicity against human MRC5 cells assessed as reduction in cell viability after 48 hrs by MTT assay. It is filed as cell-based. As to conditions: MRC5, 48 h. Background: Tetrazolium assays rely on reduction of a dye to a coloured formazan, in cell work by metabolically active cells.
The nature of data set [1]: Selectivity index, ratio of IC50 for human MRC5 cells to IC50 for Trypanosoma brucei Lister 427, antigenic type MiTat 1.2, clone 221a. It is filed as toxicity. As to conditions: MRC5 cells versus Trypanosoma brucei Lister 427, read-out: Ratio IC50.
The test system of data set [2] is Leishmania major. The data set can be described thus: Leishmaniacidal activity against Leishmania major MHOM/IL/80/Friedlin promastigotes after 72 hrs by MTT assay. It is filed as functional, organism-based.
For data set [3], the system named is Leishmania major. Nature of the data set: Leishmaniacidal activity against Leishmania major MHOM/IL/80/Friedlin amastigotes infected in human THP1 cells after 72 hrs by luciferase luminescence assay. It is filed as functional, organism-based. As to conditions: THP-1, 72 h.
A short description of data set [4]: Cytotoxicity against human THP1 cells. It is filed as cell-based. As to conditions: THP-1 cells, read-out: TC50 (the source's name).
The nature of data set [5]: Selectivity index, ratio of TC50 for human THP1 cells to IC50 for Leishmania major MHOM/IL/80/Friedlin amastigotes. It is filed as toxicity. As to conditions: THP1 cells versus Leishmania major amastigotes, read-out: Selectivity Index.

The values that follow come from ChEMBL document CHEMBL4330066, “Carbohydrate-naphthalene diimide conjugates as potential antiparasitic drugs: Synthesis, evaluation and structure-activity studies” (Eur J Med Chem, 2019).

By IC50 is commonly meant the concentration that gives 50% inhibition.

Regarding `CN(C)CCCN1C(=O)c2ccc3c4c(c(NCCCn5cc(CO[C@@H]6O[C@H](CO)[C@@H](O)[C@H](O)[C@H]6O)nn5)cc(c24)C1=O)C(=O)N(CCCN(C)C)C3=O`, the IC50 in the data set with Trypanosoma brucei came to 220 nM; with MRC5, 260 nM; with Leishmania major [2] it was 430 nM; in the data set with Leishmania major [3] it was 660 nM. Besides, the selectivity ratio in data set [1] is 1.2; in data set [5], 2.2. Also, the CC50 in data set [4] amounted to 1440 nM.

For `CN(C)CCCc1cc2c3c(c(NCCCn4cc(CO[C@@H]5O[C@H](CO)[C@@H](O[C@H]6O[C@H](CO)[C@@H](O)[C@H](O)[C@H]6O)[C@H](O)[C@H]5O)nn4)cc4c3c1C(=O)N(CCCN(C)C)C4=O)C(=O)N(CCCN(C)C)C2=O`, the IC50 in the data set on Trypanosoma brucei is 310 nM; with MRC5, 9560 nM; in the data set with Leishmania major [2] it was 11400 nM. The selectivity ratio in data set [1] is 30.8.

`CN(C)CCCc1cc2c3c(c(NCCCn4cc(COCCOCCOCCO[C@@H]5O[C@H](CO)[C@@H](O[C@H]6O[C@H](CO)[C@@H](O)[C@H](O)[C@H]6O)[C@H](O)[C@H]5O)nn4)cc4c3c1C(=O)N(CCCN(C)C)C4=O)C(=O)N(CCCN(C)C)C2=O`: the figures for the IC50 in the data set with Trypanosoma brucei, with MRC5 and in the data set on Leishmania major [2] were 390 nM, above 20000 nM and 10700 nM, respectively. Also, the selectivity ratio in data set [1] is above 51.

For `CN(C)CCCN1C(=O)c2ccc3c4c(c(NCc5cn([C@@H]6O[C@H](CO)[C@@H](O)[C@H](O)[C@H]6O)nn5)cc(c24)C1=O)C(=O)N(CCCN(C)C)C3=O`, the IC50 is 24 nM with Trypanosoma brucei and 3910 nM in the data set with Leishmania major [3]. Moreover, the CC50 in data set [4] is 8100 nM. For the same molecule, the selectivity ratio in data set [5] was 2.1.

Turning to `CN(C)CCCN1C(=O)c2ccc3c4c(c(NCCCn5cc(COCCOCCOCCO[C@@H]6O[C@H](CO)[C@@H](O[C@H]7O[C@H](CO)[C@@H](O)[C@H](O)[C@H]7O)[C@H](O)[C@H]6O)nn5)cc(c24)C1=O)C(=O)N(CCCN(C)C)C3=O`, the IC50 with Trypanosoma brucei turned out to be 40 nM; with MRC5, 3300 nM; with Leishmania major [2] it was 160 nM; with Leishmania major [3], 4520 nM. For the same molecule, the results for the selectivity ratio in data set [1] and in data set [5] were 82.5 and above 2.2, respectively. Besides, the CC50 in data set [4] was above 10000 nM.

Regarding `CN(C)CCCN1C(=O)c2ccc3c4c(c(NCc5cn(CCO[C@@H]6O[C@H](CO)[C@@H](O)[C@H](O)[C@H]6O)nn5)cc(c24)C1=O)C(=O)N(CCCN(C)C)C3=O`, the results for the half-maximal inhibitory concentration (IC50) in the data set on Trypanosoma brucei and with Leishmania major [3] were 17 nM and 4420 nM, respectively. For the same molecule, in data set [4], the CC50 was found to be 8650 nM. Further, the selectivity ratio in data set [5] was 2.

On to `CN(C)CCCc1cc2c3c(c(NCCCn4cc(COCCOCCOCCO[C@H]5O[C@H](CO)[C@@H](O)[C@H](O)[C@@H]5O)nn4)cc4c3c1C(=O)N(CCCN(C)C)C4=O)C(=O)N(CCCN(C)C)C2=O`, for which the IC50 in the data set on Trypanosoma brucei turned out to be 190 nM; in the data set on MRC5, 6470 nM; in the data set with Leishmania major [2], 4750 nM. The selectivity ratio in data set [1] was determined as 34.

For `CN(C)CCCc1cc2c3c(c(NCCCn4cc(CCO[C@@H]5O[C@H](CO)[C@@H](O[C@H]6O[C@H](CO)[C@@H](O)[C@H](O)[C@H]6O)[C@H](O)[C@H]5O)nn4)cc4c3c1C(=O)N(CCCN(C)C)C4=O)C(=O)N(CCCN(C)C)C2=O`, the IC50 in the data set on Trypanosoma brucei amounted to 340 nM; with MRC5, 11100 nM; in the data set on Leishmania major [2], 2890 nM. Besides, the selectivity ratio in data set [1] came out at 32.7.

Turning to `CN(C)CCCc1cc2c3c(c(NCCCn4cc(CCO[C@H]5O[C@H](CO)[C@@H](O)[C@H](O)[C@@H]5O)nn4)cc4c3c1C(=O)N(CCCN(C)C)C4=O)C(=O)N(CCCN(C)C)C2=O`, the IC50 with Trypanosoma brucei was 310 nM; in the data set with MRC5 it was 5150 nM; in the data set with Leishmania major [2] it was 1970 nM; in the data set with Leishmania major [3] it was above 5000 nM. For the same molecule, the selectivity ratio in data set [1] worked out at 16.6. Further, the CC50 in data set [4] was above 10000 nM.

With `CCCNc1cc2c3c(c(CCCN(C)C)cc4c3c1C(=O)N(CCCN(C)C)C4=O)C(=O)N(CCCN(C)C)C2=O`, the IC50 with Trypanosoma brucei is 3 nM; in the data set with MRC5, 80 nM; in the data set on Leishmania major [2], 740 nM; in the data set on Leishmania major [3] it was 3800 nM. For the same molecule, the selectivity ratio in data set [1] turned out to be 26.7.

For the molecule `CN(C)CCCN1C(=O)c2ccc3c4c(c(NCCCn5cc(CO[C@@H]6O[C@H](CO)[C@@H](O[C@H]7O[C@H](CO)[C@@H](O)[C@H](O)[C@H]7O)[C@H](O)[C@H]6O)nn5)cc(c24)C1=O)C(=O)N(CCCN(C)C)C3=O`, the IC50 in the data set on Trypanosoma brucei worked out at 270 nM; with MRC5, 4340 nM; with Leishmania major [2] it was 6790 nM. In addition, the selectivity ratio in data set [1] is 16.1.

Consider `CN(C)CCCc1cc2c3c(c(NCCCn4cc(CCO[C@@H]5O[C@H](CO)[C@@H](O[C@@H]6O[C@H](CO)[C@H](O)[C@H](O)[C@H]6O)[C@H](O)[C@H]5O)nn4)cc4c3c1C(=O)N(CCCN(C)C)C4=O)C(=O)N(CCCN(C)C)C2=O`, for which the IC50 with Trypanosoma brucei was 530 nM; in the data set with MRC5, 7160 nM; with Leishmania major [2], 280 nM; with Leishmania major [3] it was above 5000 nM. Further, the selectivity ratio in data set [1] came out at 13.5. Also, in data set [4], the CC50 is above 10000 nM.

For the molecule `CCCNc1cc2c3c(ccc4c3c1C(=O)N(CCCN(C)C)C4=O)C(=O)N(CCCN(C)C)C2=O`, the IC50 worked out at 9 nM with Trypanosoma brucei and 610 nM in the data set on Leishmania major [3]. The selectivity ratio in data set [1] turned out to be 40; in data set [5], 6. Further, in data set [4], the CC50 is 3650 nM.

For `CN(C)CCCc1cc2c3c(c(NCCCn4cc(CO[C@@H]5O[C@H](CO)[C@@H](O[C@@H]6O[C@H](CO)[C@H](O)[C@H](O)[C@H]6O)[C@H](O)[C@H]5O)nn4)cc4c3c1C(=O)N(CCCN(C)C)C4=O)C(=O)N(CCCN(C)C)C2=O`, the IC50 came out at 370 nM with Trypanosoma brucei, 6610 nM in the data set on MRC5 and 20000 nM with Leishmania major [2]. Besides, in data set [1], the selectivity ratio came to 17.9.

`CN(C)CCCN1C(=O)c2ccc3c4c(c(NCCCn5cc(CCO[C@H]6O[C@H](CO)[C@@H](O)[C@H](O)[C@@H]6O)nn5)cc(c24)C1=O)C(=O)N(CCCN(C)C)C3=O`: the IC50 in the data set with Trypanosoma brucei was found to be 180 nM; in the data set with MRC5 it was 170 nM; with Leishmania major [2] it was 2790 nM. Moreover, the selectivity ratio in data set [1] was determined as 0.9.

With `CN(C)CCCc1cc2c3c(c(NCCCn4cc(COCCOCCOCCO[C@@H]5O[C@H](CO)[C@@H](O[C@@H]6O[C@H](CO)[C@H](O)[C@H](O)[C@H]6O)[C@H](O)[C@H]5O)nn4)cc4c3c1C(=O)N(CCCN(C)C)C4=O)C(=O)N(CCCN(C)C)C2=O`, the IC50 with Trypanosoma brucei is 830 nM; in the data set with MRC5, 7040 nM; with Leishmania major [2] it was 8980 nM. Also, the selectivity ratio in data set [1] amounted to 8.5.

`CN(C)CCCc1cc2c3c(c(NCCCn4cc(CO[C@H]5O[C@H](CO)[C@@H](O)[C@H](O)[C@@H]5O)nn4)cc4c3c1C(=O)N(CCCN(C)C)C4=O)C(=O)N(CCCN(C)C)C2=O`: the IC50 was 440 nM with Trypanosoma brucei, 6610 nM in the data set on MRC5, 180 nM in the data set on Leishmania major [2] and above 5000 nM in the data set on Leishmania major [3]. The selectivity ratio in data set [1] was 15. Further, in data set [4], the CC50 was above 10000 nM.

In the case of `CN(C)CCCN1C(=O)c2ccc3c4c(c(NCCCn5cc(COCCOCCOCCO[C@H]6O[C@H](CO)[C@@H](O)[C@H](O)[C@@H]6O)nn5)cc(c24)C1=O)C(=O)N(CCCN(C)C)C3=O`, the values for the IC50 in the data set on Trypanosoma brucei, with MRC5 and with Leishmania major [2] were 130 nM, 1360 nM and 6120 nM, respectively. For the same molecule, in data set [1], the selectivity ratio worked out at 10.5.
